Here are results for one compound from US5110976A, “Insecticidal composition comprising more than one active ingredient” (priority 1985, dated 1992).

The test system of series [1] is T. confusum. Nature of the series: Contact method, synergism between stereoisomers (Table 2). It counts as in vivo. Particulars: Tribolium confusum, 24 h. Here is the method:
The stereoisomers are dissolved in a 1:2 mixture of mineral oil and acetone and filter paper discs (Whatman No. 1., diameter 9 cm) are impregnated with the corresponding dosage of the solution of the active ingredient. The acetone is allowed to evaporate and the insects are examined on filter paper discs placed into Petri-dishes. Three parallels are used for each dose and 15 animals are placed in each Petri-dish. Mortality rate is determined after 24 hours. The corrected mortality % data are calculated by means of the Abbot formula.
The test is carried out on T. confusum and the following results are obtained by the contact method for various active ingredient doses.
The test is carried out according to the method described in Example 20.

Series [2] relates to T. confusum. In words: Topical LD50 (Table 3). It counts as in vivo, 1-2 weeks' old imagos. The method, then:
In Table 3 the LD50 values of the Ig and Ii isomers and those of the Ib isomer-pair are disclosed. The data are topically measured.
The active ingredients are dissolved in 2-ethoxyethanol (cellosolve) and 0.3 μl droplets of the solutions are applied onto the dorsal cuticulum of 3-5 days' old female house flies. 10 animals are used and 2 parallels are carried out for each dose. The tests are carried out for 5 dose levels between activity limits of 0% and 100%. After treatment the flies are placed into glass vials. Mortality is determined after 24 hours. Data are transformed to log10 dosage and probit mortality. LD50 and confidence interval values are calculated by linear regression analysis of the log-probit data. The expected values required for the calculation of synergism are obtained by means of harmonic average. The synergistic factor is the quotient of the expected and measured values.
The active ingredients are dissolved in 2-ethoxyethanol and 0.3 μl droplets of the solutions are applied onto the abdominal side of 1-2 weeks' old imagos. Treatment is carried out with 2 parallels and 20 animals for each dose by using 5 dose levels in the range between activity limits of 0% and 100%. Evaluation and determination of LD50 values and synergistic factors are carried out as described in Example 21.

The test system of a further series is Hyphantria cunea. Nature of the series: Topical test on fall webworm (Table 8). It is filed as in vivo, L7-L8 larvae. The note with it: 24 h. The method, then:
The active ingredients are dissolved in 2-ethoxyethanol and the solutions are applied in the form of 0.2 μl droplets onto the back of fall webworm (Hyphantria cunea) of L7 -L8 larvae stage. The treated worms are placed on strawberry leaves in Petri-dishes. The test is carried out by using 5 doses; 2 parallels and 10 insects for each dose.

The next series relates to Acanthoscelides obtectus. Nature of the series: 5 EC formulation, insecticidal effect on bean weevil (Table 10). It counts as in vivo, bean weevil (Acanthoscelides obtectus), imagos. Particulars: 24 hours. The method, then: From a 5 EC formulation according to Example 17 50-, 100-, 200-, 400-, 800- and 1600-fold diluted emulsions are prepared by diluting with water. 0.5 ml of the emulsions are sprayed onto glass plates whereupon after drying 10 Colorado beetles (L. decemlineata) imagos are placed on each glass plate and the insects are covered. The tests are carried out with 6 doses by carrying out 3 parallels for each dose. The killed insects are counted after 48 hours and the percental mortality rate is calculated.
The insecticidal effect is tested on been weevil (Acanthoscelides obtectus) imagos. The killed insects are counted after 24 hours and the percental mortality rate is calculated.

For a further series, the system named is bees. In words: Toxicity on bees. Particulars: in vivo.

The term mortality denotes the share of the test organisms that died. In the case of `CC1(C)[C@H](C=C(Cl)Cl)[C@H]1C(=O)O[C@H](C#N)c1cccc(Oc2ccccc2)c1` (relative stereo) [Ib], the mortality at 110 µg/disc in the series with T. confusum [1] (0.11 mg/disc) turned out to be 90%. The mortality at 330 µg/disc with T. confusum [1] (0.33 mg/disc) turned out to be 100%. In addition, in the series on T. confusum [1] (1.00 mg/disc), the mortality at 1000 µg/disc turned out to be 100%. Also, the mortality at 3000 µg/disc in the series with T. confusum [1] (3.00 mg/disc) is 100%. Moreover, in the series with T. confusum [2] (harmonic average of the single isomers), the LD50 expected is given as 139.3 ng/insect. The synerg. factor in the series on T. confusum [2] (quotient of expected and measured LD50) stood at 2.68. Also, in the series on T. confusum [2] (topical, abdominal side), the LD50 measured stood at 51.9 ng/insect. The compound further came in with a mortality at 0.023 µg/larva in the series with Hyphantria cunea (0.023 μg/larvae) of 10%. This compound showed a mortality at 0.047 µg/larva with Hyphantria cunea (0.047 μg/larvae) of 15%. In addition, the mortality at 0.094 µg/larva in the series on Hyphantria cunea (0.094 μg/larvae) was found to be 30%. Besides, in the series with Hyphantria cunea (0.188 μg/larvae), the mortality at 0.188 µg/larva amounted to 70%. The same compound returned a mortality at 0.375 µg/larva in the series on Hyphantria cunea (0.375 μg/larvae) of 80%. Further, the Mortality % in the series on Acanthoscelides obtectus (dilution 50x) was determined as 67%; in the series with Acanthoscelides obtectus (dilution 100x), 53%; with Acanthoscelides obtectus (dilution 200x) it was 37%; in the series on Acanthoscelides obtectus (dilution 400x), 20%; in the series on Acanthoscelides obtectus (dilution 800x) it was 10%; in the series on Acanthoscelides obtectus (dilution 1600x) it was 3%. In addition, the toxicity on bees entry in the series on bees was “very low toxicity on bees”.
